Laboratory results as given in patent publication US20250281740A1, “Electroporation process for delivering a composition comprising at least one peptide of molecular weight ranging from 500 Da to 20 kDa” (L'OREAL, priority 2021, published 2025).

Test: penetration into a human skin sample, topical application versus application combined with electroporation, amount determined by ELISA
Assay type: in vitro ADME
From the text: To test the effect of the device, a sample of human skin is peripherally attached to a support, with the counterelectrode of the electroporation device placed between the inner face of the skin and the support. The electrode of the electroporation device is placed in contact with the outer face of the skin sample. The case of the electroporation device is immobilized by a support. The support is placed on an orbital shaker, so that the electrode moves over the surface of the skin. The device used in this example is a BTX Gemini X2 programmable signal generator (Harvard Instruments). The electroporation treatment time is about 1 minute. It consists of 81 pulses of 10 ms each, with rest periods of 500 ms between the pulses. The polarity chosen is negative, i.e. the electrode is at a negative potential relative to the counterelectrode. On the skin, the voltage between the electrode and the counterelectrode is about 40 V. 50 μl of […] are applied before the device is placed in position (corresponding to 100 μl/cm^2). […] Results The skin is removed from the experimental system and then analysed to determine the amount of N-acetyl-3-trifluoromethyl-phenyl-(valine-glycine) which has penetrated, via an ELISA technique.

CC(=O)N(c1cccc(C(F)(F)F)c1)C(C(=O)NCC(=O)O)C(C)C (centres unmarked) [N-acetyl-3-trifluoromethyl-phenyl-(valine-glycine)]
amount that has penetrated into the skin (electroporation process (81 pulses of 10 ms, 500 ms rest, about 40 V, negative polarity) compared with topical application of an identical composition, 1% formulations 1 and 2, 100 μl/cm^2, FIG. 4): much higher | amount that has penetrated into the skin (FIG. 5) (electroporation process compared with topical application of an identical composition, FIG. 5): log higher
